Source: ChEMBL document CHEMBL3509549

Assays:
[1] = Arithmetic mean of AUC(0-infinity) of saquinavir mesylate following oral repeat dosing of 1000 mg Invirase Hard Gel Capsules capsules in healthy human; format: ADME, organism-based; conditions: both, plasma, read-out: AUC(0-infinity)
[2] = Arithmetic mean of Cmax of saquinavir mesylate following oral repeat dosing of 1000 mg Invirase Hard Gel Capsules capsules in healthy human; format: ADME, organism-based; conditions: both, plasma
[3] = Geometric mean of Cmax of saquinavir mesylate following oral repeat dosing of 1000 mg Invirase Hard Gel Capsules capsules in healthy human; format: ADME, organism-based; conditions: both, plasma
[4] = Median Tmax of saquinavir mesylate following oral repeat dosing of 1000 mg Invirase Hard Gel Capsules capsules in healthy human; format: ADME, organism-based; conditions: both, plasma, read-out: Median Tmax
[5] = Minimum Tmax of saquinavir mesylate following oral repeat dosing of 1000 mg Invirase Hard Gel Capsules capsules in healthy human; format: ADME, organism-based, Plasma; conditions: in vivo
[6] = Maximum Tmax of saquinavir mesylate following oral repeat dosing of 1000 mg Invirase Hard Gel Capsules capsules in healthy human; format: ADME, organism-based; conditions: both, plasma, read-out: Maximum Tmax
[7] = Arithmetic mean of AUC(0-infinity) of saquinavir mesylate following oral repeat dosing of 1000 mg Invirase Film-coated tablet in healthy human; format: ADME, organism-based; conditions: both, plasma, read-out: AUC(0-infinity)
[8] = Geometric mean of AUC(0-infinity) of saquinavir mesylate following oral repeat dosing of 1000 mg Invirase Film-coated tablet in healthy human; format: ADME, organism-based; conditions: both, plasma, read-out: AUC(0-infinity)
[9] = Arithmetic mean of Cmax of saquinavir mesylate following oral repeat dosing of 1000 mg Invirase Film-coated tablet in healthy human; format: ADME, organism-based; conditions: both, plasma
[10] = Geometric mean of Cmax of saquinavir mesylate following oral repeat dosing of 1000 mg Invirase Film-coated tablet in healthy human; format: ADME, organism-based; conditions: both, plasma
[11] = Median Tmax of saquinavir mesylate following oral repeat dosing of 1000 mg Invirase Film-coated tablet in healthy human; format: ADME, organism-based; conditions: both, plasma, read-out: Median Tmax
[12] = Minimum Tmax of saquinavir mesylate following oral repeat dosing of 1000 mg Invirase Film-coated tablet in healthy human; format: ADME, organism-based; conditions: both, plasma, read-out: Minimum Tmax
[13] = Maximum Tmax of saquinavir mesylate following oral repeat dosing of 1000 mg Invirase Film-coated tablet in healthy human; format: ADME, organism-based; conditions: both, plasma, read-out: Maximum Tmax
[14] = Mean exposure of saquinavir mesylate estimated by AUC(0-infinity) following oral repeat dosing of 1000 mg Invirase Hard Gel Capsules capsules in healthy woman; format: ADME, organism-based; conditions: female, human, plasma, read-out: AUC(0-infinity)
[15] = Mean exposure of saquinavir mesylate estimated by AUC(0-infinity) following oral repeat dosing of 1000 mg Invirase Film-coated tablet in healthy woman; format: ADME, organism-based; conditions: female, human, plasma, read-out: AUC(0-infinity)
[16] = Mean exposure of saquinavir mesylate estimated by AUC(0-infinity) following oral repeat dosing of 1000 mg Invirase Hard Gel Capsules capsules in healthy men; format: ADME, organism-based; conditions: male, human, plasma, read-out: AUC(0-infinity)
[17] = Mean exposure of saquinavir mesylate estimated by AUC(0-infinity) following oral repeat dosing of 1000 mg Invirase Film-coated tablet in healthy men; format: ADME, organism-based; conditions: male, human, plasma, read-out: AUC(0-infinity)
[18] = Mean exposure of saquinavir mesylate estimated by Cmax following oral repeat dosing of 1000 mg Invirase Hard Gel Capsules capsules in healthy woman; format: ADME, organism-based; conditions: female, human, plasma
[19] = Mean exposure of saquinavir mesylate estimated by Cmax following oral repeat dosing of 1000 mg Invirase Film-coated tablet in healthy woman; format: ADME, organism-based; conditions: female, human, plasma
[20] = Mean exposure of saquinavir mesylate estimated by Cmax following oral repeat dosing of 1000 mg Invirase Hard Gel Capsules capsules in healthy men; format: ADME, organism-based; conditions: male, human, plasma
[21] = Mean exposure of saquinavir mesylate estimated by Cmax following oral repeat dosing of 1000 mg Invirase Film-coated tablet in healthy men; format: ADME, organism-based; conditions: male, human, plasma
[22] = Mean exposure of saquinavir mesylate estimated by Cmax following oral repeat dosing of 1000 mg Invirase Hard Gel Capsules capsules in healthy human; format: ADME, organism-based; conditions: both, plasma
[23] = Mean exposure of saquinavir mesylate estimated by Cmax following oral repeat dosing of 1000 mg Invirase Film-coated tablet in healthy human; format: ADME, organism-based; conditions: both, plasma
clinical [24] = conditions: both, human, plasma, po, 1000 mg
clinical [25] = conditions: both, human, plasma, po, 1000 mg; remark: listed apart in the source
clinical [26] = conditions: both, human, plasma, po, 1000 mg; remark: listed apart in the source
clinical [27] = conditions: both, human, plasma, po, 1000 mg; remark: listed apart in the source

AUC(0-inf) [1]: 1190 ng·h/mL
Cmax [2]: 348 ng/mL
Cmax [3]: 285 ng/mL
Tmax [4]: 4.37 h
Minimum Tmax [5]: 1 h
Tmax [6]: 10 h
AUC(0-inf) [7]: 1510 ng·h/mL
AUC(0-inf) [8]: 1240 ng·h/mL
Cmax [9]: 404 ng/mL
Cmax [10]: 332 ng/mL
Tmax [11]: 3.88 h
Tmax [12]: 1.02 h
Tmax [13]: 6 h
AUC(0-inf) [14]: 1090 ng·h/mL
AUC(0-inf) [15]: 1480 ng·h/mL
AUC(0-inf) [16]: 1040 ng·h/mL
AUC(0-inf) [17]: 1030 ng·h/mL
Cmax [18]: 306 ng/mL
Cmax [19]: 395 ng/mL
Cmax [20]: 265 ng/mL
Cmax [21]: 278 ng/mL
Cmax [22]: 285 ng/mL
Cmax [23]: 332 ng/mL
half-life (clinical [24]): 8.29 h
half-life (clinical [25]): 7.89 h
half-life (clinical [26]): 7.73 h
half-life (clinical [27]): 7.51 h
Compound: CC(C)(C)NC(=O)[C@@H]1C[C@@H]2CCCC[C@@H]2CN1C[C@@H](O)[C@H](Cc1ccccc1)NC(=O)[C@H](CC(N)=O)NC(=O)c1ccc2ccccc2n1
